{"source": "patent US20220389019A1", "about": "“TrkB POSITIVE ALLOSTERIC MODULATORS” (Université de Strasbourg, priority 2019, published 2022)", "data": [{"test_system": "TrkB", "experiment": "TrkB phosphorylation assay: potentiation of BDNF-induced TrkB phosphorylation in cortical neurons", "assay_type": "cell-based", "conditions": "potentation at a PAM concentration of 10 nM of 0.4 nM BDNF-induced TrkB phosphorylation in cortical neurons", "description": "It is meant by “positive allosteric modulator” (PAM), also known as allosteric enhancer or potentiator, a compound that induces an amplification of the effect of receptor's response to the primary ligand without directly activating the receptor. Within this invention, PAM TrkB activity is related to the potentation of BDNF effects on the functional activity of the TrkB receptor, measured in vitro or in vivo by mean of a specific TrkB receptor phosphorylation assay.\nIn Vitro Activity of LIT-TB Derivatives in a TrkB Phosphorylation Assay", "values": [{"molecule": "CN1CCN(c2ccc3nnc(CCC(=O)NC4CCN(C(=O)c5ccccc5)CC4)n3n2)CC1.Cl", "note": "[LIT-TB027, N-(1-benzoylpiperidin-4-yl)-3-[6-(4-methylpiperazin-1-yl)-[1,2,4]triazolo[4,3-b]pyridazin-3-yl]propanamide hydrochloride]", "PAM TrkB activity": "+ (+: <20%)"}, {"molecule": "CN1CCN(c2ccc3nnc(CCC(=O)NC4CCN(Cc5cccc(Cl)c5)CC4)n3n2)CC1", "note": "[LIT-TB018, N-{1-[(3-chlorophenyl)methyl]piperidin-4-yl}-3-[6-(4-methylpiperazin-1-yl)-[1,2,4]triazolo[4,3-b]pyridazin-3-yl]propanamide]", "PAM TrkB activity": "+++ (+++: >35%)"}, {"molecule": "CN1CCN(c2ccc3nnc(CCC(=O)N[C@H]4CCN(Cc5ccccc5)C[C@@H]4F)n3n2)CC1", "note": "[LIT-TB048, N-[(3S,4S)-1-benzyl-3-fluoropiperidin-4-yl]-3-[6-(4-methylpiperazin-1-yl)-[1,2,4]triazolo[4,3-b]pyridazin-3-yl]propanamide]", "PAM TrkB activity": "+++ (+++: >35%)"}, {"molecule": "CN1CCN(c2ccc3nnc(CCC(=O)NC4CCNCC4)n3n2)CC1", "note": "[LIT-TB021, 3-(6-(4-methylpiperazin-1-yl)-[1,2,4]triazolo[4,3-b]pyridazin-3-yl)-N-(piperidin-4-yl)propanamide]", "PAM TrkB activity": "+ (+: <20%)"}, {"molecule": "COc1ccc(CN2CCC(NC(=O)CCc3nnc4ccc(N5CCN(C)CC5)nn34)CC2)c(F)c1.Cl.Cl", "note": "[LIT-TB046, N-{1-[(2-fluoro-4-methoxyphenyl)methyl]piperidin-4-yl}-3-[6-(4-methylpiperazin-1-yl)-[1,2,4]triazolo[4,3-b]pyridazin-3-yl]propanamide dihydrochloride]", "PAM TrkB activity": "+ (+: <20%)"}, {"molecule": "CN1CCN(c2ccc3nnc(CCC(=O)N[C@@H]4CCN(Cc5ccccc5)C[C@H]4F)n3n2)CC1", "note": "[LIT-TB049, N-[(3R,4R)-1-benzyl-3-fluoropiperidin-4-yl]-3-[6-(4-methylpiperazin-1-yl)-[1,2,4]triazolo[4,3-b]pyridazin-3-yl]propanamide]", "PAM TrkB activity": "+++ (+++: >35%)"}, {"molecule": "CN1CCN(c2ccc3nnc(CCC(=O)NC4CCN(c5ccccc5)CC4)n3n2)CC1", "note": "[LIT-TB035, 3-[6-(4-methylpiperazin-1-yl)-[1,2,4]triazolo[4,3-b]pyridazin-3-yl]-N-(1-phenylpiperidin-4-yl)propanamide]", "PAM TrkB activity": "++ (++: 20-35%)"}, {"molecule": "CN1CCN(c2ccc3nnc(CCC(=O)NC4CCC(Cc5ccccc5)CC4)n3n2)CC1", "note": "(stereo not shown) [LIT-TB034, N-(4-benzylcyclohexyl)-3-[6-(4-methylpiperazin-1-yl)-[1,2,4]triazolo[4,3-b]pyridazin-3-yl]propanamide]", "PAM TrkB activity": "+ (+: <20%)"}, {"molecule": "O=C(CCc1nnc2ccc(N3CCN(c4ncccn4)CC3)nn12)NC1CCN(Cc2ccccc2)CC1", "note": "[LIT-TB004, N-(1-benzylpiperidin-4-yl)-3-(6-(4-(pyrimidin-2-yl)piperazin-1-yl)-[1,2,4]triazolo[4,3-b]pyridazin-3-yl)propanamide]", "PAM TrkB activity": "+ (+: <20%)"}, {"molecule": "CN1CCN(c2ccc3nnc(CCC(=O)N[C@@H]4CCN(Cc5ccccc5)C[C@@H]4F)n3n2)CC1", "note": "[LIT-TB047, N-[(3S,4R)-1-benzyl-3-fluoropiperidin-4-yl]-3-[6-(4-methylpiperazin-1-yl)-[1,2,4]triazolo[4,3-b]pyridazin-3-yl]propanamide]", "PAM TrkB activity": "++ (++: 20-35%)"}, {"molecule": "CN1CCC(NC(=O)CCc2nnc3ccc(N4CCN(C)CC4)nn23)CC1", "note": "[LIT-TB016, 3-[6-(4-methylpiperazin-1-yl)-[1,2,4]triazolo[4,3-b]pyridazin-3-yl]-N-(1-methyl-piperidin-4-yl)propanamide]", "PAM TrkB activity": "+++ (+++: >35%)"}, {"molecule": "Cc1[nH]cnc1CN1CCC(NC(=O)CCc2nnc3ccc(N4CCN(C)CC4)nn23)CC1", "note": "[LIT-TB032, N-{1-[(5-methyl-1H-imidazol-4-yl)methyl]piperidin-4-yl}-3-[6-(4-methylpiperazin-1-yl)-[1,2,4]triazolo [4,3-b]pyridazin-3-yl]propanamide]", "PAM TrkB activity": "+++ (+++: >35%)"}, {"molecule": "CN1CCN(c2ccc3nnc(CCCNC4CCN(Cc5ccccc5)CC4)n3n2)CC1", "note": "[LIT-TB015, 1-benzyl-N-(3-(6-(4-methylpiperazin-1-yl)-[1,2,4]triazolo[4,3-b]pyridazin-3-yl)propyl)piperidin-4-amine]", "PAM TrkB activity": "+++ (+++: >35%)"}, {"molecule": "CN1CCN(c2ccc3nnc(CCC(=O)NC4CCN(Cc5ccc(Cl)cc5)CC4)n3n2)CC1", "note": "[LIT-TB028, N-{1-[(4-chlorophenyl)methyl]piperidin-4-yl}-3-[6-(4-methylpiperazin-1-yl)-[1,2,4]triazolo[4,3-b]pyridazin-3-yl]propanamide]", "PAM TrkB activity": "+ (+: <20%)"}, {"molecule": "CN1CCN(c2ccc3ncc(CCC(=O)NC4CCN(Cc5ccccc5)CC4)n3n2)CC1", "note": "[LIT-TB014, N-(1-benzylpiperidin-4-yl)-3-(6-(4-methylpiperazin-1-yl)imidazo[1,2-b]pyridazin-3-yl)propanamide]", "PAM TrkB activity": "++ (++: 20-35%)"}, {"molecule": "CN1CCN(c2ccc3nnc(CCC(=O)NC4CCN(Cc5ccccc5Cl)CC4)n3n2)CC1", "note": "[LIT-TB019, N-{1-[(2-chlorophenyl)methyl]piperidin-4-yl}-3-[6-(4-methylpiperazin-1-yl)-[1,2,4]triazolo[4,3-b]pyridazin-3-yl]propanamide]", "PAM TrkB activity": "+++ (+++: >35%)"}, {"molecule": "COc1ccc(CN2CC[C@H](NC(=O)CCc3nnc4ccc(N5CCN(C)CC5)nn34)[C@@H](F)C2)cc1", "note": "[LIT-TB052, N-[(3S,4S)-3-fluoro-1-[(4-methoxyphenyl)methyl]piperidin-4-yl]-3-[6-(4-methylpiperazin-1-yl)-[1,2,4]triazolo[4,3-b]pyridazin-3-yl]propanamide]", "PAM TrkB activity": "+++ (+++: >35%)"}, {"molecule": "COc1ccc(CN2CCC(NC(=O)CCc3nnc4ccc(N5CCN(C)CC5)nn34)CC2)c(C)c1.Cl.Cl", "note": "[LIT-TB045, N-{1-[(4-methoxy-2-methylphenyl)methyl]piperidin-4-yl}-3-[6-(4-methylpiperazin-1-yl)-[1,2,4]triazolo[4,3-b]pyridazin-3-yl]propanamide dihydrochloride]", "PAM TrkB activity": "+++ (+++: >35%)"}, {"molecule": "O=C(CCc1nnc2ccc(N3CCC(N4CCCCC4)CC3)nn12)NC1CCN(Cc2ccccc2)CC1", "note": "[LIT-TB003, 3-(6-([1,4′-bipiperidin]-1′-yl)-[1,2,4]triazolo[4,3-b]pyridazin-3-yl)-N-(1-benzylpiperidin-4-yl) propanamide]", "PAM TrkB activity": "++ (++: 20-35%)"}, {"molecule": "CN1CCN(c2ccc3nnc(CCC(=O)NC4CCN(Cc5ccccc5F)CC4)n3n2)CC1", "note": "[LIT-TB022, N-{1-[(2-fluorophenyl)methyl]piperidin-4-yl}-3-[6-(4-methylpiperazin-1-yl)-[1,2,4]triazolo[4,3-b]pyridazin-3-yl]propanamide]", "PAM TrkB activity": "+++ (+++: >35%)"}, {"molecule": "CN1CCN(c2ccc3ncc(CCC(=O)NC4CCN(Cc5ccccc5)CC4)n3c2)CC1", "note": "[LIT-TB013, N-(1-benzylpiperidin-4-yl)-3-(6-(4-methylpiperazin-1-yl)imidazo[1,2-a]pyridin-3-yl)propanamide]", "PAM TrkB activity": "+++ (+++: >35%)"}, {"molecule": "O=C(CCc1nnc2ccc(N3CCN(Cc4ccccc4)CC3)nn12)NC1CCN(Cc2ccccc2)CC1", "note": "[LIT-TB005]", "PAM TrkB activity": "+++ (+++: >35%)"}, {"molecule": "CN1CCN(c2ccc3nnc(CCC(=O)NC4CCN(Cc5ccc(F)cc5)CC4)n3n2)CC1", "note": "[LIT-TB020, N-{1-[(4-fluorophenyl)methyl]piperidin-4-yl}-3-[6-(4-methylpiperazin-1-yl)-[1,2,4]triazolo[4,3-b]pyridazin-3-yl]propanamide]", "PAM TrkB activity": "+++ (+++: >35%)"}, {"molecule": "Cc1ccccc1CN1CCC(NC(=O)CCc2nnc3ccc(N4CCN(C)CC4)nn23)CC1", "note": "[LIT-TB024, N-{1-[(2-methylphenyl)methyl]piperidin-4-yl}-3-[6-(4-methylpiperazin-1-yl)-[1,2,4]triazolo[4,3-b]pyridazin-3-yl]propanamide]", "PAM TrkB activity": "+++ (+++: >35%)"}, {"molecule": "CN1CCN(c2ccc3nnc(CCC(=O)NC4CCN(Cc5ccccc5)CC4)n3c2)CC1", "note": "[LIT-TB006, N-(1-benzylpiperidin-4-yl)-3-(6-(4-methylpiperazin-1-yl)-[1,2,4]triazolo[4,3-a]pyridin-3-yl)propanamide]", "PAM TrkB activity": "+++ (+++: >35%)"}, {"molecule": "Cc1cc(F)ccc1CN1CCC(NC(=O)CCc2nnc3ccc(N4CCN(C)CC4)nn23)CC1", "note": "[LIT-TB044, N-{1-[(4-fluoro-2-methylphenyl)methyl]piperidin-4-yl}-3-[6-(4-methylpiperazin-1-yl)-[1,2,4]triazolo[4,3-b]pyridazin-3-yl]propanamide]", "PAM TrkB activity": "++ (++: 20-35%)"}, {"molecule": "CN1CCN(c2ccc3nnc(CCC(=O)NC4CCN(Cc5ccncc5)CC4)n3n2)CC1", "note": "[LIT-TB025, 3-[6-(4-methylpiperazin-1-yl)-[1,2,4]triazolo[4,3-b]pyridazin-3-yl]-N-[1-(pyridin-4-ylmethyl)piperidin-4-yl]propanamide]", "PAM TrkB activity": "+ (+: <20%)"}, {"molecule": "CC(c1ccccc1)N1CCC(NC(=O)CCc2nnc3ccc(N4CCN(C)CC4)nn23)CC1", "note": "(stereo not shown) [LIT-TB023, 3-[6-(4-methylpiperazin-1-yl)-[1,2,4]triazolo[4,3-b]pyridazin-3-yl]-N-[1-(1-phenylethyl)piperidin-4-yl]propanamide]", "PAM TrkB activity": "+ (+: <20%)"}, {"molecule": "CN1CCN(c2ccc3nnc(CCC(=O)NC4CCN(Cc5ccc(F)cc5F)CC4)n3n2)CC1", "note": "[LIT-TB040, N-{1-[(2,4-difluorophenyl)methyl]piperidin-4-yl}-3-[6-(4-methylpiperazin-1-yl)-[1,2,4]triazolo[4,3-b]pyridazin-3-yl]propanamide]", "PAM TrkB activity": "++ (++: 20-35%)"}, {"molecule": "CN1CCN(c2ccc3nnc(CCC(=O)NC4CCN(Cc5ccccc5)C(=O)C4)n3n2)CC1", "note": "(stereo not shown) [LIT-TB033, N-(1-benzyl-2-oxopiperidin-4-yl)-3-[6-(4-methylpiperazin-1-yl)-[1,2,4]triazolo[4,3-b]pyridazin-3-yl]propanamide]", "PAM TrkB activity": "+ (+: <20%)"}, {"molecule": "CN1CCN(c2ccc3nnc(CCC(=O)NC4CCN(CC5CCCCC5)CC4)n3n2)CC1", "note": "[LIT-TB031, N-[1-(cyclohexylmethyl)piperidin-4-yl]-3-[6-(4-methylpiperazin-1-yl)-[1,2,4]triazolo[4,3-b]pyridazin-3-yl]propanamide]", "PAM TrkB activity": "+++ (+++: >35%)"}]}]}
